# Laboratory results from publication PMC6479817, “In Vitro and In Situ Characterization of the Intestinal Absorption of Capilliposide B and Capilliposide C from Lysimachia capillipes Hemsl” (Molecules, 2019).
# Assays:
# [1] = Stability in Krebsringer buffer (K-R buffer) at different pH values; type: physicochemical; conditions: pH 5.0, pH 6.55, pH 7.43
# Description: The SPIP model was used to further explore the intestinal permeability features of CAPB and CAPC in rats. Firstly, we determined the stability of CAPB and CAPC in the Krebsringer buffer (K-R buffer) across different pH values. […] In other words, CAPB and CAPC were stable in a weakly acidic environment. Because the pH of intestinal juice was close to 6.55, we used a K-R buffer at pH 6.55 as the perfusion solution.
# Figure 4 The characterization of the intestinal permeability of capilliposide B (CAPB) and capilliposide C (CAPC) in single-pass intestinal perfusion (SPIP) model. The stability of CAPB and CAPC were measured at different pH values (pH 5, pH 6.55, and pH 7.34, respectively) (A). The absorption rate constants (ka, s^−1) values (B) and effective permeability (Peff, cm/s) values (C) for CAPB and CAPC at different initial drug concentrations (20 μg/mL, 50 μg/mL, and 80 μg/mL, respectively). p < 0.05 (*) compared with the group at 80 μg/mL. The Ka values (D) and Peff values (E) of CAPB and CAPC obtained from the duodenum, jejunum, and ileum in SPIP models. p < 0.05 (*) compared with the duodenum. All the results are expressed as mean ± S.D. (n = 3).
# [2] = set-up: method as in PMID 24313264; conditions: cited from earlier work
# caco-2 cells = assay: MTT colorimetric assay of caco-2 cell viability; type: cell-based, human; conditions: 24 h; for effect on cell growth (MTT): concentration less than 40 μg/mL; for effect on cell viability (MTT): concentration over 40 μg/mL
# Description: The effects of CAPs on caco-2 cell viability were checked by 3-(4,5-dimethyl-2-thiazolyl)-2,5-diphenyl-2-H-tetrazolium bromide (MTT) colorimetric assay, which is adapted to analyze cell proliferation and drug cytotoxicity. […] In brief, caco-2 cells were seeded at 4 × 10^3 cells/well into 96-well culture plates and were incubated at 37 °C for 24 h before the assay. The cells were treated with different concentrations (0, 10, 20, 40, 80, 120, 160 and 240 μg/mL) of CAPs. After 24 h of incubation, 20 µL of MTT (5 mg/mL) was added to each well and the cells were incubated for another 4 h. After removing the culture medium, 100 µL of dimethyl sulfoxide was added to dissolve the contents in the plate. Then, the absorbance was measured at 570 and 630 nm (reference wavelength) using a microplate reader (Multiskan MK3; Thermo Fisher Scientific, Waltham, MA, USA).
# Figure S2: Capilliposides (CAPs) inhibited the proliferation of caco-2 cells. Caco-2 cells were treated for 24 h with different concentrations (0, 10, 20, 40, 80, 120, 160 and 240 ug/mL) of CAPs. p < 0.05(*), comparison with the group of 0 ug/mL. All the results are expressed as mean ± S.D. (n=3).
# [3] = system: intestinal segment (duodenum, jejunum, ileum); type: in vivo; conditions: rat; for change of Peff and Ka values at higher drug concentration (80 μg/mL) / change of Peff and Ka values between 20 and 50 μg/mL / increase of Peff with indomethacin / increase of intestinal transport with verapamil / order of Peff and Ka values in three intestinal segments: in vivo
# Description: Male Sprague-Dawley (SD) rats (280 ± 30 g) were supplied by the Laboratory Animal Center, Zhejiang Chinese Medical University (Zhejiang, China). All animals were fasted overnight (12-18 h) with free access to water before experiments. All experiments were performed in accordance with the guidelines for the care and use of animals as established by the Laboratory Animal Centre, Zhejiang Chinese Medical University (Zhejiang, China) (approval number: ACXK20150016). The perfusion experiment was performed as previously reported. In brief, rats were fasted overnight but permitted to drink water freely the day before the experiments. After being anesthetized, the rats were placed on the surface of a thermostatic device and maintained at 37 °C. An incision of approximately 3 cm was made along the midline of the abdominal cavity to expose the contents of the abdomen. […] Then the incision was made at both sides of the segment. The intestinal contents were rinsed with saline preheated at 37 °C, drained with air, and connected to the perfusion system with the catheter. One-hundred […] of pre-prepared perfusate was taken and preheated at 37 °C. The perfusion was started at a circulation speed of 1.0 mL/min for 10 min. […] Samples were collected in glass tubes (2 mL/per) at 10-min intervals for 90 min. […] The rest of the samples were stored at -20 °C for further studies.
# caco-2 cell monolayer = assay: Transport (permeability) across caco-2 cell monolayer, bidirectional, with and without inhibitors; type: in vitro ADME, human
# Description: Caco-2 cells were routinely cultured in high glucose Dulbecco’s modified Eagle’s medium (DMEM) containing 10% fetal bovine serum (FBS), 1% nonessential amino acids, and 1% penicillin/streptomycin. Cells were kept at 37 °C in a 90% relative humidity atmosphere containing 5% CO2. Cells were seeded onto transwells purchased from Corning Costar Co. (New York, NY, USA) on 12-well plates for transport studies and uptake studies at 5 × 10^4 cells per insert. Cells were grown for 20 days. […] DMEM was removed and the monolayer was washed with Hank’s Balanced Salt Solution (HBSS). The blank HBSS was replaced by 0.4 mL of HBSS containing 40, 20 and 10 μg/mL of drug on the apical (AP) side and 2.1 mL of HBSS on the basolateral (BL) side. In the AP-BL direction studies, 0.4 mL of HBSS containing 40 μg/mL drug and P-gp inhibitor (53 μg/mL verapamil); MRP2 inhibitor (17.9 μg/mL indomethacin); or the co-inhibitor of P-gp, MRP2 and CYP3A4 (10 μg/mL cyclosporin A) were added to the AP side; 2.1 mL of HBSS was added to the BL side. In the BL-AP direction studies, 0.4 mL of HBSS containing 40 μg/mL drug and different inhibitors were added to the BL side, and 2.1 mL of HBSS was added to AP side. Samples (0.4 mL) were taken from the BL or AP side after 45, 60 and 90 min incubation at 37 °C. An additional 0.4 mL of HBSS was added at the same time. The concentrations of samples were analyzed by LC-MS. […] Linear regression was carried out to obtain the steady-state appearance rate of the drug on the receiver side.
SMILES,stability in K-R buffer across pH values [1],bioavailability and tissue exposure after oral administration [2],effect on cell growth (MTT) (caco-2 cells),effect on cell viability (MTT) (caco-2 cells),change of permeability with cyclosporin A [3],change of permeability with ketoconazole vs alone [3],effective permeability (Peff) [3],change of Peff and Ka values at higher drug concentration (80 μg/mL) [3],change of Peff and Ka values between 20 and 50 μg/mL [3],increase of Peff with indomethacin [3] [fold],increase of intestinal transport with verapamil [3] [fold],order of Peff and Ka values in three intestinal segments [3],Papp (caco-2 cell monolayer),"Papp (BA)/Papp (AB) (efflux ratio, ER) (caco-2 cell monolayer)",Papp at high and medium vs lower concentration (caco-2 cell monolayer),Papp over incubation time (caco-2 cell monolayer),change of permeability in the presence of cyclosporin A (caco-2 cell monolayer)
"CCCCCC(=O)O[C@H]1CC(C)(C)C[C@@H]2[C@@]13[C@H](O)C[C@]1(C)[C@@]2(CC[C@@H]2[C@@]4(C)CC[C@H](O[C@@H]5OC[C@H](O[C@@H]6O[C@H](CO)[C@@H](O)[C@H](O)[C@H]6O[C@@H]6OC[C@@H](O)[C@H](O)[C@H]6O)[C@H](O)[C@H]5O[C@@H]5O[C@H](CO)[C@@H](O)[C@H](O)[C@H]5O)C(C)(C)[C@@H]4CC[C@]21C)O[C@H]3O [CAPB, capilliposide B]",more stable at pH 5.0 and pH 6.55 than pH 7.43,poor bioavailability and low exposure in tissues,did not inhibit cell growth significantly,significantly decreased cell viability,increased around two-fold,two-fold higher permeability,less than 0.2 × 10^−4 cm/s,significant increase,slight decline,4.2,1.5,duodenum > jejunum > ileum,less than 2 × 10^−6 cm/s,1.0-1.5,significant increase in permeability,upward trend over time,10 fold
"CC1(C)C[C@H](O[C@@H]2O[C@H](CO)[C@@H](O)[C@H](O)[C@H]2O)[C@@]23[C@H](O)C[C@]4(C)[C@@](CC[C@@H]5[C@@]6(C)CC[C@H](O[C@@H]7OC[C@H](O[C@@H]8O[C@H](CO)[C@@H](O)[C@H](O)[C@H]8O[C@@H]8OC[C@@H](O)[C@H](O)[C@H]8O)[C@H](O)[C@H]7O[C@@H]7O[C@H](CO)[C@@H](O)[C@H](O)[C@H]7O)C(C)(C)[C@@H]6CC[C@]54C)(O[C@@H]2O)[C@@H]3C1 [CAPC, capilliposide C]",more stable at pH 5.0 and pH 6.55 than pH 7.43,poor bioavailability and low exposure in tissues,did not inhibit cell growth significantly,significantly decreased cell viability,increased slightly,minimal alteration of permeability,less than 0.2 × 10^−4 cm/s,significant decrease,slight increase,2,1.5,followed the same pattern as CAPB,less than 2 × 10^−6 cm/s,1.0-1.5,significant increase in permeability,upward trend over time,only a small increase
